Legend:
Format in all cases: in vivo
[1] = tested on: Echinochloa crusgalli (L.) Beauv. (ECHCG); assay: Postemergence foliar-applied, direct seeded rice, greenhouse: visual weed control; details: 21 DAA
Method: (§1) Seeds or nutlets of the desired test plant species were planted in a soil matrix prepared by mixing a loam or sandy loam soil (e.g., 28.6 percent silt, 18.8 percent clay, and 52.6 percent sand, with a pH of about 5.8 and an organic matter content of about 1.8 percent) and calcareous grit in an 80 to 20 ratio. The soil matrix was contained in plastic pots with a volume of 1 quart and a surface area of 83.6 cm^2. […] The plants were grown for 8-22 days in a greenhouse with an approximate 14 h photoperiod which was maintained at about 29° C. during the day and 26° C. during the night. Nutrients (Peters Excel® 15-5-15 5-Ca 2-Mg and iron chelate) were applied in the irrigation solution as needed and water was added on a regular basis. Supplemental lighting was provided with overhead metal halide 1000-Watt lamps as necessary. The plants were employed for testing when they reached the first through fourth true leaf stage.
(§2) Forms of compound A were applied on an acid equivalent basis.
(§3) For treatments comprised of formulated compounds, measured amounts of compounds were placed individually in 25 mL glass vials and diluted in a volume of 1.25% (v/v) Agri-Dex® crop oil concentrated to obtain 12× stock solutions. […] Application solutions were prepared by adding an appropriate amount of each stock solution (e.g., 1 mL) and diluted to the appropriate final concentrations with the addition of 10 mL of an aqueous mixture of 1.25% (v/v) crop oil concentrate so that the final spray solutions contained 1.25+/−0.05% (v/v) crop oil concentrate.
(§4) As required, additional water and/or 97:3 v/v acetone/DMSO was added to individual application solutions so that the final acetone and DMSO concentrations of the application solutions being compared were 8.1% and 0.25%, respectively.
(§5) All stock solutions and applications solutions were visually inspected for compound compatibility prior to application. Spray solutions were applied to the plant material with an overhead Mandel track sprayer equipped with a 8002E nozzles calibrated to deliver 187 L/ha over an application area of 0.503 m^2 at a spray height of 18 to 20 inches (46 to 50 cm) above average plant canopy height. Control plants were sprayed in the same manner with the solvent blank.
(§6) The treated plants and control plants were placed in a greenhouse as described above and watered by sub-irrigation to prevent wash-off of the test compounds. After approximately 3 weeks, the condition of the test plants as compared with that of the untreated plants was determined visually and scored on a scale of 0 to 100 percent where 0 corresponds to no injury or growth inhibition and 100 corresponds to complete kill.
(§7) Colby's equation was used to determine the herbicidal effects expected from the mixtures (Colby, S. R. 1967. Calculation of the synergistic and antagonistic response of herbicide combinations. Weeds 15:20-22.).
(§8) The following equation was used to calculate the expected activity of mixtures containing two active ingredients, A and B: Expected=A+B−(A×B/100)

[2] = tested on: Ipomoea hederacea Jacq. (IPOHE); assay: as above; details: post-emergence, 504 h, read-out: Visual Weed Control (%) Obs
Method: as §1, §2, §3, §4, §5, §6, §7, §8

[3] = tested on: Leptochloa chinensis (L.) Nees (LEFCH); assay: In-water applied, transplanted paddy rice, greenhouse: visual weed control; details: 21 DAA
Method: Weed seeds or nutlets of the desired test plant species were planted in puddled soil (mud) prepared by mixing a shredded, non-sterilized mineral soil (50.5 percent silt, 25.5 percent clay, and 24 percent sand, with a pH of about 7.6 and an organic matter content of about 2.9 percent) and water at a 1:1 volumetric ratio. The prepared mud was dispensed in 365 mL aliquots into 16-ounce (oz.) non-perforated plastic pots with a surface area of 86.59 square centimeters (cm^2) leaving a headspace of 3 centimeters (cm) in each pot. Mud was allowed to dry overnight prior to planting or transplanting. Rice seeds were planted in Sun Gro MetroMix® 306 planting mixture, which typically has a pH of 6.0 to 6.8 and an organic matter content of about 30 percent, in plastic plug trays. Seedlings at the second or third leaf stage of growth were transplanted into 860 mL of mud contained in 32-oz. non-perforated plastic pots with a surface area of 86.59 cm^2 4 days prior to herbicide application. The paddy was created by filling the headspace of the pots with 2.5 to 3 cm of water. When required to ensure good germination and healthy plants, a fungicide treatment and/or other chemical or physical treatment was applied. The plants were grown for 4-22 days in a greenhouse with an approximate 14 h photoperiod which was maintained at about 29° C. during the day and 26° C. during the night. Nutrients were added as Osmocote® (19:6:12, N:P:K+minor nutrients) at 2 g per 16.-oz. pot and 4 g per 32-oz. pot. Water was added on a regular basis to maintain the paddy flood, and supplemental lighting was provided with overhead metal halide 1000-Watt lamps as necessary. The plants were employed for testing when they reached the first through fourth true leaf stage.
Treatments consisted of the acid or esters of 4-amino-3-chloro-5-fluoro-6-(4-chloro-2-fluoro-3-methoxy-phenyl)pyridine-2-carboxylic acid (compound A) each formulated as an SC and various herbicidal components alone and in combination. Forms of compound A were applied on an acid equivalent basis.
Treatment requirements for each compound or herbicidal component were calculated based upon the rates being tested, the concentration of active ingredient or acid equivalent in the formulation, an application volume of 2 mL per component per pot, and an application area of 86.59 cm^2 per pot.
For formulated compounds, a measured amount was placed in an individual 100 or 200 mL glass vial and was dissolved in a volume of 1.25% (v/v) Agri-Dex® crop oil concentrate to obtain application solutions.
For technical grade compounds, a weighed amount was placed in an individual 100 to 200 mL glass vial and was dissolved in a volume of acetone to obtain concentrated stock solutions. […] The concentrated stock solutions obtained were diluted with an equivalent volume of an aqueous mixture containing 2.5% (v/v) crop oil concentrate so that the final application solutions contained 1.25% (v/v) crop oil concentrate.
Applications were made by injecting, with a pipetter, appropriate amounts of the application solutions into the aqueous layer of the paddy. Control plants were treated in the same manner with the solvent blank. Applications were made so that all treated plant material received the same concentrations of acetone and crop oil concentrate.
as §6, with “water was added as needed” for “watered by sub-irrigation”, “maintain a paddy flood.” for “prevent wash-off of the test compounds.”, “weeks” for “weeks,”
Colby's equation was used to determine the herbicidal effects expected from the mixtures (Colby, S. R. 1967. Calculation of the synergistic and antagonistic response of herbicide combinations. Weeds 15:20-22.). […]

Compound: CCCCOC(=O)c1nc(-c2ccc(Cl)c(OC)c2F)c(F)c(N)c1Cl [Compound A n-Butyl Ester]
- Visual Weed Control (%) Obs ([1]; 17.5 g ae/ha): 45%
- Visual Weed Control (%) Obs ([1]; 35 g ae/ha): 70%
- pest or weed control at 17.5 g/ha [2]: 40%
- Visual Weed Control (%) Obs ([3]; 35 g ae/ha): 8%
- Visual Weed Control (%) Obs ([3]; 70 g ae/ha): 38%

— patent publication US8846570B2, “Herbicidal compositions comprising 4-amino-3-chloro-5-fluoro-6-(4-chloro-2-fluoro-3-methoxyphenyl)pyridine-2-carboxylic acid or a derivative thereof and microtubule inhibiting herbicides” (Dow AgroSciences LLC, priority 2012, dated 2014)
